# Reference: EPA's ToxRefDB 2
# Columns and labels:
# rat [1] = conditions: Combined chronic toxicity/carcinogenicity, sprague dawley, Oral, Feed, dose end: 24 month, group: systemic
# rat [2] = conditions: Subchronic oral toxicity in rodents, sprague dawley, Feed, dose end: 90 day
# rat [3] = conditions: Prenatal developmental toxicity study, sprague dawley, Oral, Gavage/Intubation, dose end: 15 GD
# dog [4] = conditions: Chronic toxicity, beagle, Oral, Capsule, dose end: 107 week, group: systemic
# rat [5] = conditions: Multigenerational reproductive toxicity study, wistar, Oral, Feed, dose end: 2 generation
# mouse [6] = conditions: Carcinogenicity, cd1, Oral, Feed, dose end: 104 week, group: systemic
# rat [7] = conditions: Subchronic oral toxicity in rodents, sprague dawley, Feed, dose end: 90 day, group: systemic, systemic / clinical chemistry / albumin / albumin + systemic / in life observation / body weight / body weight gain + systemic / organ …
# dog [8] = conditions: Chronic toxicity; beagle; Oral; Feed; dose end: 104 week; group: systemic; systemic / clinical chemistry / alanine aminotransferase (alt/sgpt) / alanine aminotransferase (alt/sgpt) + systemic / clinical chemistry / …
# mouse [9] = conditions: Carcinogenicity, cd1, Oral, Feed, dose end: 80 week, group: systemic
# rat [10] = conditions: Combined chronic toxicity/carcinogenicity, sprague dawley, Oral, Feed, dose end: 104 week, group: systemic
# rabbit = conditions: Prenatal developmental toxicity study, new zealand white, Oral, Gavage/Intubation, dose end: 18 GD
# [11] = systemic / pathology microscopic / thyroid gland / hyperplasia + systemic / pathology microscopic / thyroid gland / hypertrophy + systemic…
# [12] = group: cholinesterase, cholinesterase / cholinesterase / cholinesterase / plasma cholinesterase (che)
# [13] = group: systemic, systemic / organ weight / thyroid gland / relative to body weight + systemic / pathology microscopic / kidney / eosinophilic focus + …
# [14] = group: systemic, systemic / pathology microscopic / kidney / eosinophilic focus + systemic / pathology microscopic / kidney / hyaline droplet
# [15] = group: developmental, developmental / developmental malformation / bone / incomplete ossification + systemic / in life observation / body weight / fetal weight + …
# [16] = group: maternal, reproductive / reproductive performance / fertility / fertility + reproductive / reproductive performance / resorptions / resorptions + …
# [17] = systemic / organ weight / liver / relative to body weight
# [18] = systemic / organ weight / liver / relative to body weight + systemic / clinical chemistry / alkaline phosphatase (alp/alk) / alkaline …
# [19] = group: offspring, systemic / in life observation / body weight / offspring (pup) weight gain
# [20] = group: parental, systemic / in life observation / body weight / body weight gain
# [21] = systemic / organ weight / liver / absolute
# [22] = systemic / organ weight / liver / absolute + systemic / organ weight / adrenal gland / absolute + systemic / organ weight / adrenal gland / …
# [23] = systemic / organ weight / liver / absolute + systemic / organ weight / liver / relative to body weight
# [24] = systemic / pathology microscopic / testes / adenoma + systemic / in life observation / body weight / body weight + systemic / in life …
# [25] = group: developmental, developmental / developmental malformation / bone / incomplete ossification
# [26] = group: maternal, reproductive / reproductive performance / postimplantation loss / postimplantation loss + reproductive / reproductive performance / …
compound,measurement,setting,value
CC(C)N1C(=O)N(c2ccccc2)CSC1=NC(C)(C)C [Buprofezin],LOAEL,rat [1]; systemic / pathology microscopic / thyroid gland / hyperplasia + systemic / pathology microscopic / thyroid gland / hypertrophy,8.7 mg/kg/day
same,LEL,rat [1]; [11],8.7 mg/kg/day
same,NEL,rat [1]; [11],0.9 mg/kg/day
same,NOAEL,rat [1]; [11],0.9 mg/kg/day
same,LEL,rat [2]; [12],362 mg/kg/day
same,LOAEL,rat [2]; [12],> 362 mg/kg/day
same,NEL,rat [2]; [12],81.8 mg/kg/day
same,NOAEL,rat [2]; [12],≥ 362 mg/kg/day
same,LOAEL,rat [2]; [13],68.6 mg/kg/day
same,NOAEL,rat [2]; [13],13 mg/kg/day
same,LEL,rat [2]; [14],3.4 mg/kg/day
same,NEL,rat [2]; [14],< 3.4 mg/kg/day
same,LEL,"rat [3]; group: developmental, developmental / developmental malformation / bone / incomplete ossification + developmental / developmental malformation / bone / unossified",200 mg/kg/day
same,LOAEL,rat [3]; [15],800 mg/kg/day
same,NEL,rat [3]; [15],50 mg/kg/day
same,NOAEL,rat [3]; [15],200 mg/kg/day
same,LOAEL,rat [3]; [16],800 mg/kg/day
same,NEL,rat [3]; [16],50 mg/kg/day
same,NOAEL,rat [3]; [16],200 mg/kg/day
same,LEL,"rat [3]; group: maternal, systemic / in life observation / water consumption / water consumption",200 mg/kg/day
same,LEL,dog [4]; [17],2 mg/kg/day
same,NEL,dog [4]; [17],< 2 mg/kg/day
same,LOAEL,dog [4]; [18],20 mg/kg/day
same,NOAEL,dog [4]; [18],2 mg/kg/day
same,LEL,rat [5]; [19],81.5 mg/kg/day
same,LOAEL,rat [5]; [19],81.5 mg/kg/day
same,NEL,rat [5]; [19],7.89 mg/kg/day
same,NOAEL,rat [5]; [19],7.89 mg/kg/day
same,LEL,rat [5]; [20],81.5 mg/kg/day
same,LOAEL,rat [5]; [20],> 81.5 mg/kg/day
same,NEL,rat [5]; [20],7.89 mg/kg/day
same,NOAEL,rat [5]; [20],≥ 81.5 mg/kg/day
same,LOAEL,mouse [6]; [21],17.4 mg/kg/day
same,NEL,mouse [6]; [22],1.82 mg/kg/day
same,NOAEL,mouse [6]; [22],1.82 mg/kg/day
same,LEL,mouse [6]; [23],17.4 mg/kg/day
CCOC1Oc2ccc(OS(C)(=O)=O)cc2C1(C)C (stereo not given) [Ethofumesate],LEL,rat [7],1900 mg/kg/day
same,LOAEL,rat [7],1900 mg/kg/day
same,NEL,rat [7],190 mg/kg/day
same,NOAEL,rat [7],190 mg/kg/day
same,LEL,dog [8],619 mg/kg/day
same,LOAEL,dog [8],619 mg/kg/day
same,NEL,dog [8],109 mg/kg/day
same,NOAEL,dog [8],109 mg/kg/day
same,LEL,mouse [9]; [21],204 mg/kg/day
same,NEL,mouse [9]; [21],< 204 mg/kg/day
same,LOAEL,mouse [9]; [23],> 2140 mg/kg/day
same,NOAEL,mouse [9]; [23],≥ 2140 mg/kg/day
same,LOAEL,rat [10]; systemic / in life observation / body weight / body weight gain,469 mg/kg/day
same,NOAEL,rat [10]; systemic / in life observation / body weight / body weight gain + systemic / clinical chemistry / alkaline phosphatase (alp/alk) / alkaline …,127 mg/kg/day
same,LEL,rat [10]; [24],97 mg/kg/day
same,NEL,rat [10]; [24],< 97 mg/kg/day
same,LEL,rabbit; [25],300 mg/kg/day
same,LOAEL,rabbit; [25],300 mg/kg/day
same,NEL,rabbit; [25],30 mg/kg/day
same,NOAEL,rabbit; [25],30 mg/kg/day
same,LEL,rabbit; [26],300 mg/kg/day
same,LOAEL,rabbit; [26],300 mg/kg/day
same,NEL,rabbit; [26],30 mg/kg/day
same,NOAEL,rabbit; [26],30 mg/kg/day
